The values below are quoted from earlier work in patent US20120302500A1, “USE OF SO[…] IN MENINGIOMA” (NOVARTIS AG, priority 2008, published 2012).

Starred links: 1 amine or outer side, 2 acyl side, 3 side chain; linkers in the order of their positions; H or OH if unused. Non-standard residues stand in square brackets, D forms with d. Residues, ends and D or L forms follow the SMILES beside them. Groups on a side chain read outwards from the residue. *: point of attachment. Ethylenediamine = C(CN[*:2])N[*:1]; Hyp = O=C(O)[C@@H]1C[C@@H](O)CN1; Phg = N[C@H](C(=O)O)c1ccccc1; CO = O=C([*:1])[*:2]; Bn = c1ccc(C*)cc1

The conditions of this data set: in vivo.

The half-life is the time needed for the level to fall by half in the phase considered. Take `NCCCC[C@@H]1NC(=O)[C@@H](Cc2c[nH]c3ccccc23)NC(=O)[C@H](c2ccccc2)NC(=O)[C@@H]2C[C@@H](OC(=O)NCCN)CN2C(=O)[C@H](Cc2ccccc2)NC(=O)[C@H](Cc2ccc(OCc3ccccc3)cc2)NC1=O` [pasireotide, cyclo[{4-(NH2—C2H4—NH—CO—O—)Pro}-Phg-DTrp-Lys-Tyr(4-Bzl)-Phe]] (cyclo([Hyp]([CO-Ethylenediamine])[Phg][dW]KY(Bn)F)): the half-life is 11 h.
